Assay results taken from patent publication EP1561465A2, “Methods of use of fluoroquinolone compounds against bacteria” (LG Life Sciences, Ltd., priority 1999, dated 2001).
Converted amounts (≈) assume the structure as drawn. “And” between values parts separate entries of the source, which are not always exact repeats. Identical values can stand only once. Like-named read-outs stand apart in the source and are kept apart here.

Legend:
Format in all cases: cell-based
[1] = system: Klebsiella pneumoniae; assay: MIC by agar dilution (NCCLS), 322 nosocomial Gram negative isolates, Athens 1998; conditions: n = 56 isolates; for MIC50 / MIC90: Klebsiella pneumoniae
[2] = system: Pseudomonas aeruginosa; assay: as above; conditions: n = 57 isolates
[3] = system: Escherichia coli; assay: as above; conditions: Escherichia coli; n = 57 isolates
[4] = system: Acinetobacter spp.; assay: as above; conditions: n = 38 strains; for MIC50 / MIC90: Acinetobacter
[5] = system: Proteus mirabilis; assay: as above; conditions: n = 57 isolates; for MIC50 / MIC90: Proteus mirabilis
[6] = system: Gram negative anaerobic pathogens and facultative anaerobic pathogens; assay: MIC by agar dilution, Brucella HK agar with 5% laked sheep blood, anaerobic reference strains
[7] = system: Gram positive anaerobic and facultative anaerobic pathogens; assay: organism not typed
[8] = system: Enterobacter spp.; assay: MIC by agar dilution (NCCLS), 322 nosocomial Gram negative isolates, Athens 1998; conditions: n = 57 isolates; for MIC50 / MIC90: Enterobacter; for MIC50: read-out: MIC50; for MIC90: read-out: MIC90

## CC(C)(O/N=C(\C(=O)N[C@@H]1C(=O)N2C(C(=O)[O-])=C(C[n+]3ccccc3)CS[C@H]12)c1csc(N)n1)C(=O)O [Ceftazidime]
[1]
  MIC50: 0.25 µg/mL (≈ 0.457 µM)
  MIC90: > 64 µg/mL
[2]
  MIC50: 2 µg/mL (≈ 3.66 µM)
  MIC90: > 64 µg/mL
[3]
  MIC50: 0.125 µg/mL (≈ 0.229 µM)
  MIC90: 0.25 µg/mL (≈ 0.457 µM)
[4]
  MIC50: > 64 µg/mL
  MIC90: > 64 µg/mL
[5]
  MIC50: 0.125 µg/mL (≈ 0.229 µM)
  MIC90: 8 µg/mL (≈ 14.6 µM)

## C[C@@H](O)[C@H]1C(=O)N2C(C(=O)O)=C(SCCN=CN)C[C@H]12 [Imipenem]
[1]
  MIC50: 0.25 µg/mL (≈ 0.835 µM)
  MIC90: 1 µg/mL (≈ 3.34 µM)
  MIC Range: 0.125 to 4 µg/mL
[2]
  MIC50: 2 µg/mL (≈ 6.68 µM)
  MIC90: 32 µg/mL (≈ 107 µM)
[6]; Bacteroides eggerthii, ATCC27754
  MIC: 0.125 µg/mL (≈ 0.418 µM)
[6]; Bacteroides fragilis, ATCC25285, Bacteroides fragilis ATCC25285, read-out: MIC
  MIC: 0.5 µg/mL (≈ 1.67 µM)
[6]; Bacteroides fragilis, Bacteroides fragilis GA15562, read-out: MIC
  MIC: 0.25 µg/mL (≈ 0.835 µM)
[6]; Bacteroides fragilis, Bacteroides fragilis GA-I0558, read-out: MIC
  MIC: 1 µg/mL (≈ 3.34 µM)
[6]; Bacteroides fragilis, Bacteroides fragilis GA-I7955, read-out: MIC
  MIC: 4 µg/mL (≈ 13.4 µM)
[6]; Bacteroides fragilis, Bacteroides fragilis GAI10150, read-out: MIC
  MIC: 2 µg/mL (≈ 6.68 µM)
[6]; Bacteroides fragilis, Bacteroides fragilis GAI30079, read-out: MIC
  MIC: 256 µg/mL (≈ 855 µM)
[6]; Bacteroides fragilis, Bacteroides fragilis GAI30144, read-out: MIC
  MIC: 256 µg/mL (≈ 855 µM)
[6]; Bacteroides fragilis, NCTC10581
  MIC: 0.125 µg/mL (≈ 0.418 µM)
[6]; Bacteroides ovatus, ATCC8483, Bacteroides ovatus ATCC8483, read-out: MIC
  MIC: 0.25 µg/mL (≈ 0.835 µM)
[6]; Bacteroides thetaiotaomicron, ATCC29741, Bacteroides thetaiotaomicron ATCC29741, read-out: MIC
  MIC: 0.5 µg/mL (≈ 1.67 µM)
[6]; Bacteroides uniformis, ATCC8492, Bacteroides uniformis ATCC8492, read-out: MIC
  MIC: 0.5 µg/mL (≈ 1.67 µM)
[6]; Bilophilla wadsworthia WAL7959, read-out: MIC
  MIC: 0.25 µg/mL (≈ 0.835 µM)
[6]; Campylobacter gracilis, JCM8538, Campylobacter gracilis JCM8538, read-out: MIC
  MIC: 0.25 µg/mL (≈ 0.835 µM)
[6]; Campylobacter ureolyticus, NCTC10941, Bacteroides ureolyticus NCTC10941, read-out: MIC
  MIC: 0.25 µg/mL (≈ 0.835 µM)
[6]; Capnocytophaga ochracea, Capnocytophaga ochracea GAI5586, read-out: MIC
  MIC: 0.25 µg/mL (≈ 0.835 µM)
[6]; Desullomonas pigra DSM749, read-out: MIC
  MIC: 0.06 µg/mL (≈ 0.2 µM)
[6]; Fusobacterium necrophorum, ATCC25286
  MIC: 0.125 µg/mL (≈ 0.418 µM)
[6]; Fusobacterium nucleatum, ATCC25586, Fusobacterium nucleatum ATCC25586, read-out: MIC
  MIC: 1 µg/mL (≈ 3.34 µM)
[6]; Fusobacterium varium, ATCC8501, Fusobacterium varium ATCC8501, read-out: MIC
  MIC: 4 µg/mL (≈ 13.4 µM)
[6]; Hoylesella oralis, ATCC33269, Prevotella oralis ATCC33269, read-out: MIC
  MIC: ≤ 0.03 µg/mL
[6]; Parabacteroides distasonis, ATCC8503, Bacteroides distasonis ATCC8503, read-out: MIC
  MIC: 1 µg/mL (≈ 3.34 µM)
[6]; Phocaeicola vulgatus, ATCC8482, Bacteroides vulgatus ATCC8482, read-out: MIC
  MIC: 1 µg/mL (≈ 3.34 µM)
[6]; Porphylomonas gingivalis ATCC33277, read-out: MIC
  MIC: ≤ 0.03 µg/mL
[6]; Porphyromonas asaccharolytica, ATCC25260, Porphyromonas asaccharolytica ATCC25260, read-out: MIC
  MIC: ≤ 0.03 µg/mL
[6]; Prevotella bivia, ATCC29303, Prevotella bivia ATCC29303, read-out: MIC
  MIC: 0.06 µg/mL (≈ 0.2 µM)
[6]; Prevotella buccaeATCC33574, read-out: MIC
  MIC: 0.25 µg/mL (≈ 0.835 µM)
[6]; Prevotella corporis, Prevotella corporis GAI91000, read-out: MIC
  MIC: ≤ 0.03 µg/mL
[6]; Prevotella heparinolytica, ATCC35895
  MIC: 0.125 µg/mL (≈ 0.418 µM)
[6]; Prevotella melaninogenica, Prevotella melaninogenica GAI5490, read-out: MIC
  MIC: ≤ 0.03 µg/mL
[6]; Segatella oris, ATCC33573, Prevotella oris ATCC33573, read-out: MIC
  MIC: 0.06 µg/mL (≈ 0.2 µM)
[6]; Sutterella wadsworthensis, ATCC51579, Sutterella wadsworthensis ATCC51579, read-out: MIC
  MIC: 2 µg/mL (≈ 6.68 µM)
[6]; Veillonella dispar, ATCC17748, Veillonella dispar ATCC17748, read-out: MIC
  MIC: 0.06 µg/mL (≈ 0.2 µM)
[6]; Veillonella parvula, ATCC10790
  MIC: 0.125 µg/mL (≈ 0.418 µM)
[7]
  MIC: 0.125 µg/mL and 0.25 µg/mL
[7]; Bifidobacterium adolescentis, ATCC15703
  MIC: 0.125 µg/mL (≈ 0.418 µM)
[7]; Bifidobacterium bifidum, JCM1255
  MIC: 0.125 µg/mL (≈ 0.418 µM)
[7]; Bifidobacterium breve, ATCC15700
  MIC: 1 µg/mL (≈ 3.34 µM)
[7]; Bifidobacterium longum, ATCC15707
  MIC: 0.25 µg/mL (≈ 0.835 µM)
[7]; Bifidobacterium pseudolongum, ATCC25526
  MIC: 0.25 µg/mL (≈ 0.835 µM)
[7]; Clostridioides difficile
  MIC: 4 µg/mL (≈ 13.4 µM)
[7]; Clostridium perfringens, ATCC13124
  MIC: 0.125 µg/mL (≈ 0.418 µM)
[7]; Clostridium septicum, ATCC12464
  MIC: ≤ 0.03 µg/mL
[7]; Cutibacterium acnes, ATCC11828
  MIC: 0.125 µg/mL (≈ 0.418 µM)
[7]; Eggerthella lenta, ATCC25559
  MIC: 2 µg/mL (≈ 6.68 µM)
[7]; Finegoldia magna, ATCC29328
  MIC: 0.25 µg/mL (≈ 0.835 µM)
[7]; Gemella morbillorum, ATCC27824
  MIC: ≤ 0.03 µg/mL
[7]; Lacticaseibacillus casei, JCM1134
  MIC: 0.5 µg/mL (≈ 1.67 µM)
[7]; Lactiplantibacillus plantarum, JCM1149
  MIC: 0.06 µg/mL (≈ 0.2 µM)
[7]; Lactobacillus acidophilus, JCM1132
  MIC: 0.125 µg/mL (≈ 0.418 µM)
[7]; Levilactobacillus brevis, JCM1059
  MIC: 0.06 µg/mL (≈ 0.2 µM)
[7]; Ligilactobacillus salivarius, JCM1231
  MIC: 0.5 µg/mL (≈ 1.67 µM)
[7]; Limosilactobacillus reuteri, JCM1112
  MIC: 0.06 µg/mL (≈ 0.2 µM)
[7]; Limosilactobacillus reuteri, JCM1173
  MIC: ≤ 0.03 µg/mL
[7]; Paraclostridium sordellii, ATCC9714
  MIC: ≤ 0.03 µg/mL
[7]; Parvimonas micra
  MIC: 0.125 µg/mL (≈ 0.418 µM)
[7]; Peptoniphilus asaccharolyticus
  MIC: 0.125 µg/mL (≈ 0.418 µM)
[7]; Peptoniphilus indolicus
  MIC: ≤ 0.03 µg/mL
[7]; Peptostreptococcus anaerobius, ATCC27337
  MIC: 0.06 µg/mL (≈ 0.2 µM)
[7]; Schaalia odontolytica
  MIC: 0.5 µg/mL (≈ 1.67 µM)
[7]; Staphylococcus saccharolyticus, ATCC14953
  MIC: ≤ 0.03 µg/mL
[7]; Streptococcus constellatus, ATCC27823
  MIC: 0.25 µg/mL (≈ 0.835 µM)
[7]; Streptococcus intermedius, ATCC27335
  MIC: 0.25 µg/mL (≈ 0.835 µM)
[7]; Thomasclavelia ramosa, ATCC25582
  MIC: 0.25 µg/mL (≈ 0.835 µM)
[4]
  MIC50: 1 µg/mL (≈ 3.34 µM)
  MIC90: 4 µg/mL (≈ 13.4 µM)
  MIC Range: 0.06 to 16 µg/mL
[5]
  MIC50: 2 µg/mL (≈ 6.68 µM)
  MIC90: 4 µg/mL (≈ 13.4 µM)
  MIC Range: 0.125 to 16 µg/mL
[8]
  MIC50: 1 µg/mL (≈ 3.34 µM)
  MIC90: 2 µg/mL (≈ 6.68 µM)
  MIC Range: 0.25 to 64 µg/mL

## C[C@@H](O)[C@H]1C(=O)N2C(C(=O)O)=C(S[C@@H]3CN[C@H](C(=O)N(C)C)C3)[C@H](C)[C@H]12 [Meropenem]
[1]
  MIC50: 0.03 µg/mL (≈ 0.0782 µM)
  MIC90: 0.06 µg/mL (≈ 0.156 µM)
  MIC Range: ≤0.03 to 2 µg/mL
[2]
  MIC50: 1 µg/mL (≈ 2.61 µM)
  MIC90: 16 µg/mL (≈ 41.7 µM)
[3]
  MIC50: ≤ 0.03 µg/mL
  MIC90: ≤ 0.03 µg/mL
[4]
  MIC50: 2 µg/mL (≈ 5.22 µM)
  MIC90: 8 µg/mL (≈ 20.9 µM)
  MIC Range: 0.06 to 16 µg/mL
[5]
  MIC50: 0.03 µg/mL (≈ 0.0782 µM)
  MIC90: 0.25 µg/mL (≈ 0.652 µM)
  MIC Range: ≤0.03 to 4 µg/mL
[8]
  MIC50: 0.06 µg/mL (≈ 0.156 µM)
  MIC90: 4 µg/mL (≈ 10.4 µM)
  MIC Range: ≤0.03 to 16 µg/mL

## CCN1CCN(C(=O)N[C@@H](C(=O)N[C@@H]2C(=O)N3[C@@H]2SC(C)(C)[C@@H]3C(=O)O)c2ccccc2)C(=O)C1=O [Piperacillin]
[1]
  MIC50: 32 µg/mL (≈ 61.8 µM)
  MIC90: > 64 µg/mL
[2]
  MIC50: 8 µg/mL (≈ 15.5 µM)
  MIC90: > 64 µg/mL
[3]
  MIC50: 4 µg/mL (≈ 7.73 µM)
  MIC90: 64 µg/mL (≈ 124 µM)
[4]
  MIC50: > 64 µg/mL
  MIC90: > 64 µg/mL
[5]
  MIC50: 1 µg/mL (≈ 1.93 µM)
  MIC90: > 64 µg/mL
[8]
  MIC50: 16 µg/mL (≈ 30.9 µM)
  MIC90: > 64 µg/mL
